Assay results: patent US12553889B2, “Small molecules targeting the intrinsically disordered structural ensemble of α-synuclein protect against diverse α-synuclein mediated dysfunctions” (The Regents of the University of California, priority 2019, dated 2026)
Entries after “also recorded” stand apart in the source; their conditions may differ.

What was measured:
[1] = test system: primary rat embryonic midbrain neurons; test: Toxicity to primary midbrain dopaminergic neurons; format: cell-based; conditions: compound alone, 60 μM
Method: Primary midbrain cultures were prepared and dopaminergic neuronal viability in the presence and absence of αSyn was assessed as previously described and repeated herein. Primary midbrain cultures were prepared from embryonic day 17 embryos of Sprague-Dawley rats using methods reviewed and approved by the Purdue Animal Care and Use Committee as described previously. After dissection, the cells were plated into a poly-L-lysine-treated 48-well plate at a density of 163,500 cells per well. Four days later, the cells were treated with cytosine arabinofuranoside (AraC) (20 μM) for 48 hours to inhibit the growth of glial cells. The cultures were used for measurements of dopaminergic neuron viability at 7 days in vitro. […] In order to determine the viability of dopaminergic neurons, MAP2- and TH-positive neurons were counted in 10 to 15 randomly chosen observation fields in a blinded manner using a Nikon TE2000-U inverted fluorescence microscope (Nikon Instruments, Melville NY) with a 20× objective. In the control conditions, and in conditions where the compound was neuroprotective, typically 500 to 1,300 MAP2-positive neurons were counted, a range that corresponds to 20 to 50 TH-positive neurons. The data were expressed as the ratio of the TH-positive neurons to the MAP2-positive neurons. […]

[2] = biological target: T1, αSyn (Homo sapiens, UniProt P37840); test: seeded αSyn fibrillization assay (αSyn seeds added at initiation); format: biochemical; parameters: made in house; host or cells: E. coli BL21(DE3), pET-21d
Method: Fibrillization assays. Prior to each aggregation assay, purified αSyn at 5 mg/mL was treated with 6M guanidine and dialyzed 36 hours in a 3500 MW cutoff Slide-A-lyzer with three changes of 20 mM sodium phosphate and 100 mM NaCl pH 7.4 buffer. αSyn was centrifuged at 130,000 g for 40 minutes in a Beckman Ultracentrifuge to remove seeding species and supernatant used for assays. For initial testing, 60 mM compound in DMSO was diluted to 300 μM in 0.5% DMSO and controls contained equivalent DMSO concentrations. Assay samples contained 20 μM Thioflavin T, filtered through a 0.45 μm Acrodisc filter prior to each assay, 70 μM αSyn in 20 mM sodium phosphate and 100 mM NaCl pH 7.4. One teflon bead, (0.125″ PTFE, Grade 2 polished) was placed in each well of a 96 well black with clear bottom assay plate (Corning) in a total volume of 500 μL. The plate was sealed with Mylar and parafilm, placed at 37° C. in a Tecan F200Pro Plate Reader and shaken at an amplitude of 6 mm for 120 hours continuously except for a brief time during reading of the plate. Thioflavin T fluorescence was detected by excitation at 440 nm and reading emissions at 485 nm each 60 minutes throughout the assay. […] Data were analyzed in Excel using XL-fit sigmoidal model #600 and when normalized, comparing fluorescence values at 50 hours for compounds as a percentage of DMSO control.

[3] = biological target: T1, αSyn; test: αSyn fibrillization assay (Thioflavin T fluorescence); format: biochemical; parameters: made in house; host or cells: E. coli BL21(DE3), pET-21d; conditions: for impact on αSyn fibrillization (thioflavin fluorescence signal): compound at 300 μM, 70 μM αSyn, vs 0.5% DMSO control
Method: Fibrillization assays. Prior to each aggregation assay, purified αSyn at 5 mg/mL was treated with 6M guanidine and dialyzed 36 hours in a 3500 MW cutoff Slide-A-lyzer with three changes of 20 mM sodium phosphate and 100 mM NaCl pH 7.4 buffer. αSyn was centrifuged at 130,000 g for 40 minutes in a Beckman Ultracentrifuge to remove seeding species and supernatant used for assays. For initial testing, 60 mM compound in DMSO was diluted to 300 μM in 0.5% DMSO and controls contained equivalent DMSO concentrations. Assay samples contained 20 μM Thioflavin T, filtered through a 0.45 μm Acrodisc filter prior to each assay, 70 μM αSyn in 20 mM sodium phosphate and 100 mM NaCl pH 7.4. One teflon bead, (0.125″ PTFE, Grade 2 polished) was placed in each well of a 96 well black with clear bottom assay plate (Corning) in a total volume of 500 μL. The plate was sealed with Mylar and parafilm, placed at 37° C. in a Tecan F200Pro Plate Reader and shaken at an amplitude of 6 mm for 120 hours continuously except for a brief time during reading of the plate. Thioflavin T fluorescence was detected by excitation at 440 nm and reading emissions at 485 nm each 60 minutes throughout the assay. To generate αSyn seeds for the seeding assays, αSyn at 10 mg/mL was incubated with stirring at 43° C. for 24 hours followed by exhaustive sonication. 1% (by mass) of seeds were added to the fibrillization assay. Samples were plated in quadruplicate, and the replicates averaged for each experiment for plotted data. Data were analyzed in Excel using XL-fit sigmoidal model #600 and when normalized, comparing fluorescence values at 50 hours for compounds as a percentage of DMSO control.
α-Syn for the Fibrillization assay. Wildtype human αSyn was produced from a pET-21d plasmid (Millipore, Burlington, MA) in E. coli BL21(DE3) cells induced by addition of 1 mM […] and incubated at 16° C. overnight. Cells were harvested by centrifugation at 4,000×g for 10 minutes and stored at −80° C. Frozen cells expressing αSyn protein were resuspended in 50 mM Tris, pH 7.5, 1 mM TCEP, 1 mM EDTA, and 1 mM L-Methionine and lysed using a microfluidizer. Lysate was centrifuged at 7000×g for 0.5 hours at 21° C. The supernatant was boiled in a water bath for 15 minutes, cooled on ice and centrifuged at 45,000 g for 30 min. The supernatant was filtered through a 0.2 μm Corning filter and subjected to ion exchange chromatography using a Capto ImpRes Q (GE Healthcare, Upssala, Sweden) anion exchange (IEX) column at ambient temperature. The column was eluted with a gradient of 100 column volumes from 0 to 1M NaCl using an AKTA Explorer 100 Liquid Chromatography System (GE Healthcare, Uppsala, Sweden). Pure αSyn fractions were desalted to 50 mM KPO4, pH 7.5 and 50 mM NaCl using PD-10 columns (GE Healthcare, Chicago, IL) and concentrated to 5 mg/mL or 10 mg/ml (3K MWCO, Amicon Ultra, Millipore, Burlington, MA).
Statistical Analysis of compound activity in Fibrillization assays. For the analyses of compound activity in the αSyn fibrillization assay, the relative fluorescence unit (RFU) data obtained from compounds were compared to those of DMSO, to identify those that are statistically different from DMSO at various time points. Each experiment contained 4 replicates of each compound and of DMSO control. […] A repeated measures analysis of variance was performed on logarithmic transformed data using a linear mixed effects model which included Compound, Time, Replicate (Compound) and Compound*Time. The covariance structure across time that minimized the corrected Akaike Information Criterion (AICC) was used and the Kenward and Roger method was used to determine the appropriate degrees of freedom. Each compound mean was compared to the DMSO mean using Bonferroni multiplicity adjusted t-tests. Statistical analyses were conducted using the MIXED procedure in SAS 9.1 (SAS Institute Inc. Cary, NC, USA). Statistical significance refers to p-value<0.05.

Row | Structure (SMILES) | toxic effect on primary dopaminergic neurons [1] | impact on seeded fibrillization ([2]; preformed αSyn fibrils/protofibrils added at initiation) | time at which activity is first seen in seeded fibrillization ([2]; seeded fibrillization, time in the incubation) [h] | impact on αSyn fibrillization (thioflavin fluorescence signal) [3] | inhibition of aggregation when used as control ([3]; over 30 synuclein fibrillization experiments)
1 | CNC(=O)c1cc(O)ccc1N [Compound 576755, 2-amino-5-hydroxy-N-methylbenzamide] | no detectable toxic effect; also recorded: not toxic | blocks fibrillization; also recorded: anti-aggregation activity | ≤ 2 | inhibit fibrillization; also recorded: impair fibrillization | robust inhibition of aggregation in all assays
2 | CNC(=O)CN(C(=O)Cc1noc2ccccc12)C(C)c1ccc(Cl)cc1 (stereo not shown) [Compound 582032, 2-(benzo[d]isoxazol-3-yl)-N-(1-(4-chlorophenyl)ethyl)-N-(2-(methylamino)-2-oxoethyl)acetamide] | – | – | – | inhibit fibrillization; also recorded: impair fibrillization | –
3 | Cc1c(-c2csc(NC(C(N)=O)C3CCNCC3)n2)sc2ccccc12 (stereo not shown) [Compound 573437, 2-((4-(3-methylbenzo[b]thiophen-2-yl)thiazol-2-yl)amino)-2-(piperidin-4-yl)acetamide] | – | – | – | missed by the more variable αSyn fibrillization assay | –
